These results are taken from ChEMBL document CHEMBL2401627, “Synthesis of some novel chalcones, flavanones and flavones and evaluation of their anti-inflammatory activity” (Eur J Med Chem, 2013).

Series [1] relates to Rattus norvegicus. Nature of the series: Gastrointestinal toxicity in Wistar rat assessed as ulcerogenic index at 60 mg/kg, po after 6 hrs relative to control. Format: organism-based. Set-up: dose 60 mg/kg, route oral. Particulars: in vivo.
Series [2] deals with Rattus norvegicus. Nature of the series: Antiinflammatory activity in Wistar rat assessed as inhibition of carrageenan-induced hind paw oedema at 20 mg/kg, po administered 30 mins before carrageenan challenge measured after 5 hrs by plethysmometer relative to control. Format: functional. (In the carrageenan paw model, swelling and tenderness develop within hours.)
The subject of series [3] is Rattus norvegicus. Nature of the series: Antiinflammatory activity in Wistar rat assessed as inhibition of carrageenan-induced hind paw oedema at 20 mg/kg, po administered 30 mins before carrageenan challenge measured after 3 hrs by plethysmometer relative to control. Format: functional.
Series [4] concerns RAW264.7. Nature of the series: Antiinflammatory activity in mouse RAW264.7 cells assessed as inhibition of LPS-induced TNFalpha production at 10 uM treated 30 mins before LPS challenge measured after 3 hrs by ELISA relative to control. The class given is functional.
Series [5] relates to RAW264.7. Nature of the series: Antiinflammatory activity in mouse RAW264.7 cells assessed as inhibition of LPS-induced TNFalpha production at 10 uM treated 30 mins before LPS challenge measured after 2 hrs by ELISA relative to control. Format: functional. A general note: ELISA stands for enzyme-linked immunosorbent assay.
Series [6] concerns RAW264.7. In words: Antiinflammatory activity in mouse RAW264.7 cells assessed as inhibition of LPS-induced TNFalpha production at 10 uM treated 30 mins before LPS challenge measured after 1 hr by ELISA relative to control. The class given is functional.
The subject of series [7] is RAW264.7. Nature of the series: Antiinflammatory activity in mouse RAW264.7 cells assessed as inhibition of LPS-induced TNFalpha production at 5 uM treated 30 mins before LPS challenge measured after 3 hrs by ELISA relative to control. Format: functional.
For series [8], the system named is RAW264.7. Nature of the series: Antiinflammatory activity in mouse RAW264.7 cells assessed as inhibition of LPS-induced TNFalpha production at 5 uM treated 30 mins before LPS challenge measured after 2 hrs by ELISA relative to control. Format: functional.
Series [9] relates to RAW264.7. In words: Antiinflammatory activity in mouse RAW264.7 cells assessed as inhibition of LPS-induced TNFalpha production at 5 uM treated 30 mins before LPS challenge measured after 1 hr by ELISA relative to control. Format: functional.
Series [10] deals with T1, Prostaglandin G/H synthase 1 (Ovis aries, UniProt P05979).
T1 sequence (P05979 whole entry): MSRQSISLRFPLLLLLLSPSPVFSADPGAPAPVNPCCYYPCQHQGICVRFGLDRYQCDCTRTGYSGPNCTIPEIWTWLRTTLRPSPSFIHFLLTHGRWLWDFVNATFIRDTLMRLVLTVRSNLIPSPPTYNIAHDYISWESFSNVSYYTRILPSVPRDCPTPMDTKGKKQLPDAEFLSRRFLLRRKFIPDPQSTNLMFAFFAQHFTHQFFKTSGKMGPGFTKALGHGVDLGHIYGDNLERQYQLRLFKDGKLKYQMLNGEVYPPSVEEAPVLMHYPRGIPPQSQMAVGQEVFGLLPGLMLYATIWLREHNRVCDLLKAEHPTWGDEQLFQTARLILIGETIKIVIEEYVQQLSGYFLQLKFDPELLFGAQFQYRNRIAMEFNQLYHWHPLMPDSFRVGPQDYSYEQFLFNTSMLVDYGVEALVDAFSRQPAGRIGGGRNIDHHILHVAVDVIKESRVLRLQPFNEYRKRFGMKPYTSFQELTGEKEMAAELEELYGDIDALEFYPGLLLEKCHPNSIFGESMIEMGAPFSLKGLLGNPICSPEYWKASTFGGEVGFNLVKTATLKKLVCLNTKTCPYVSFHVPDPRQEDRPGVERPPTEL
Nature of the series: Inhibition of ovine COX1.

Regarding `Cc1cc2c(c(C)c1Cl)C(=O)CC(c1ccc(N(C)C)cc1)O2` (stereo not drawn), the UI in the series with Rattus norvegicus [1] is 0 mm. Also, the figures for the inhibition in vivo at 20 mg/kg in the series with Rattus norvegicus [2] and with Rattus norvegicus [3] were 81% and 82%, respectively.
Regarding `COc1cc(C)c(Cl)c(C)c1C(=O)/C=C/c1ccccc1Cl`, the inhibition in vivo (as a rule, the share of the control response that was lost under treatment) at 20 mg/kg in the series on Rattus norvegicus [2] stood at 12.5%; in the series with Rattus norvegicus [3] it was 27.8%.
The like results for `Cc1cc2oc(-c3ccccc3)cc(=O)c2c(C)c1Cl` were, in that order, 16.2% and 26.3%.
On the same counts, the results for `COc1ccc(/C=C/C(=O)c2c(O)cc(C)c(Cl)c2C)cc1` are 55% and 50%.
On the same counts, the results for `Cc1cc(O)c(C(=O)/C=C/c2ccc(Cl)cc2)c(C)c1Cl` are 36% and 41.6%.
As to `COc1ccc(/C=C/C(=O)c2c(OC)cc(C)c(Cl)c2C)cc1OC`, the UI with Rattus norvegicus [1] turned out to be 0.16 mm. Also, the inhibition in vivo at 20 mg/kg in the series with Rattus norvegicus [2] was 62%; with Rattus norvegicus [3] it was 81%.
The like results for `COc1ccc2c(c1)c(CC(=O)O)c(C)n2C(=O)c1ccc(Cl)cc1` [INDOMETHACIN] were, in that order, 1.5 mm, 86% and 67%.
As for `COc1cc(/C=C/C(=O)c2c(OC)cc(C)c(Cl)c2C)cc(OC)c1OC`, in the series with Rattus norvegicus [1], the UI is listed as 0.16 mm. For the same compound, the inhibition in vivo at 20 mg/kg in the series on Rattus norvegicus [2] stood at 62.5%; in the series with Rattus norvegicus [3], 76.9%.
Turning to `COc1cc(C)c(Cl)c(C)c1C(=O)/C=C/c1cccc([N+](=O)[O-])c1`, the inhibition in vivo at 20 mg/kg with Rattus norvegicus [2] is 22.2%; in the series on Rattus norvegicus [3], 68.2%.
The like results for `Cc1cc2oc(-c3ccc(Cl)cc3)cc(=O)c2c(C)c1Cl` were, in that order, 22.9% and 26.1%.
The like results for `COc1ccc(-c2cc(=O)c3c(C)c(Cl)c(C)cc3o2)cc1` were, in that order, 28.6% and 58%.
Consider `COc1cc(-c2cc(=O)c3c(C)c(Cl)c(C)cc3o2)cc(OC)c1OC`, for which the UI in the series on Rattus norvegicus [1] amounted to 0 mm. For the same compound, the inhibition in vivo at 20 mg/kg with Rattus norvegicus [2] is 73.3%; in the series on Rattus norvegicus [3], 68.4%.
On to `Cc1cc(O)c(C(=O)/C=C/c2ccccc2Cl)c(C)c1Cl`, for which the results for the inhibition in vivo at 20 mg/kg in the series with Rattus norvegicus [2] and with Rattus norvegicus [3] were 70% and 33%, respectively.
`COc1cc(/C=C/C(=O)c2c(O)cc(C)c(Cl)c2C)cc(OC)c1OC`: the Activity with RAW264.7 [4] is 88.83 pg/mL; with RAW264.7 [5] it was 53.77 pg/mL; in the series on RAW264.7 [6] it was 34.99 pg/mL; in the series with RAW264.7 [7], 104.78 pg/mL; in the series on RAW264.7 [8], 79.77 pg/mL; with RAW264.7 [9], 49.42 pg/mL. In series [10], the IC50 (usually the concentration at which inhibition is half-maximal) is 87.5 µM. The UI with Rattus norvegicus [1] stood at 0.4 mm. The inhibition in vivo at 20 mg/kg in the series on Rattus norvegicus [2] amounted to 90.6%; with Rattus norvegicus [3], 91.7%.
Consider `COc1cc(C)c(Cl)c(C)c1C(=O)/C=C/c1cccc(O)c1`, for which the UI with Rattus norvegicus [1] is 0.33 mm. In addition, the inhibition in vivo at 20 mg/kg is 75% in the series with Rattus norvegicus [2] and 80.8% in the series on Rattus norvegicus [3].
As to `Cc1cc2c(c(C)c1Cl)C(=O)CC(c1cccc([N+](=O)[O-])c1)O2` (stereo not drawn), the inhibition in vivo at 20 mg/kg came to 51.4% in the series with Rattus norvegicus [2] and 53.6% with Rattus norvegicus [3].
As to `COc1cc(/C=C/C(=O)c2c(OC)cc(C)c(Cl)c2C)ccc1O`, the inhibition in vivo at 20 mg/kg in the series on Rattus norvegicus [2] is 25%; in the series with Rattus norvegicus [3] it was 22.2%.
On to `Cc1cc(O)c(C(=O)/C=C/c2ccccc2)c(C)c1Cl`, for which the UI with Rattus norvegicus [1] is 0.4 mm. Moreover, the results for the inhibition in vivo at 20 mg/kg in the series on Rattus norvegicus [2] and in the series on Rattus norvegicus [3] were 82% and 70%, respectively.
`COc1cc(C)c(Cl)c(C)c1C(=O)/C=C/c1ccccc1`: the inhibition in vivo at 20 mg/kg worked out at 75% with Rattus norvegicus [2] and 69.2% with Rattus norvegicus [3].
On to `COc1ccc(/C=C/C(=O)c2c(O)cc(C)c(Cl)c2C)cc1OC`, for which the UI in the series on Rattus norvegicus [1] stood at 0.6 mm. Further, the inhibition in vivo at 20 mg/kg with Rattus norvegicus [2] came out at 82%; in the series on Rattus norvegicus [3], 71%.
In the case of `Cc1cc2c(c(C)c1Cl)C(=O)CC(c1ccccc1)O2` (stereo not drawn), the inhibition in vivo at 20 mg/kg was determined as 27.7% in the series with Rattus norvegicus [2] and 43.3% in the series with Rattus norvegicus [3].
Take `Cc1cc2c(c(C)c1Cl)C(=O)CC(c1ccccc1O)O2` (stereo not drawn): the inhibition in vivo at 20 mg/kg in the series with Rattus norvegicus [2] came out at 75%; in the series with Rattus norvegicus [3] it was 58.8%.
Consider `Cc1cc2c(c(C)c1Cl)C(=O)CC(c1cccc(O)c1)O2` (stereo not drawn), for which the results for the inhibition in vivo at 20 mg/kg in the series with Rattus norvegicus [2] and in the series with Rattus norvegicus [3] were 44.4% and 46.4%, respectively.
On the same counts, the results for `COc1ccc(-c2cc(=O)c3c(C)c(Cl)c(C)cc3o2)cc1OC` are 22.9% and 43.1%.
Regarding `COc1cc(C)c(Cl)c(C)c1C(=O)/C=C/c1ccccc1[N+](=O)[O-]`, the figures for the inhibition in vivo at 20 mg/kg in the series on Rattus norvegicus [2] and in the series on Rattus norvegicus [3] were 66.7% and 63.6%, respectively.
`Cc1cc(O)c(C(=O)/C=C/c2cccc(O)c2)c(C)c1Cl`: the UI in the series on Rattus norvegicus [1] came to 0.4 mm. The inhibition in vivo at 20 mg/kg with Rattus norvegicus [2] was determined as 71%; with Rattus norvegicus [3], 83%.
Regarding `Cc1cc(O)c(C(=O)/C=C/c2ccccc2[N+](=O)[O-])c(C)c1Cl`, the inhibition in vivo at 20 mg/kg was 14.3% in the series with Rattus norvegicus [2] and 26.3% with Rattus norvegicus [3].
As for `COc1ccc(/C=C/C(=O)c2c(OC)cc(C)c(Cl)c2C)cc1`, the values for the inhibition in vivo at 20 mg/kg in the series with Rattus norvegicus [2] and with Rattus norvegicus [3] were 12.5% and 16.7%, respectively.
On to `COc1cc(C)c(Cl)c(C)c1C(=O)/C=C/c1ccccc1O`, for which the inhibition in vivo at 20 mg/kg in the series with Rattus norvegicus [2] is 50%; with Rattus norvegicus [3] it was 33.3%.
On the same counts, the results for `Cc1cc2c(c(C)c1Cl)C(=O)CC(c1ccccc1Cl)O2` (stereo not drawn) are 56% and 22.2%.
`COc1ccc(C2CC(=O)c3c(cc(C)c(Cl)c3C)O2)cc1OC` (stereo not drawn): the inhibition in vivo at 20 mg/kg came out at 41.7% in the series on Rattus norvegicus [2] and 48.5% in the series on Rattus norvegicus [3].
On the same counts, the results for `COc1cc(C2CC(=O)c3c(cc(C)c(Cl)c3C)O2)ccc1O` (stereo not drawn) are 66% and 44.4%.
For the compound `Cc1cc2oc(-c3ccccc3Cl)cc(=O)c2c(C)c1Cl`, the inhibition in vivo at 20 mg/kg in the series on Rattus norvegicus [2] is 57.1%; with Rattus norvegicus [3], 36.8%.
In the case of `COc1ccc(C2CC(=O)c3c(cc(C)c(Cl)c3C)O2)cc1` (stereo not drawn), the values for the inhibition in vivo at 20 mg/kg in the series on Rattus norvegicus [2] and in the series with Rattus norvegicus [3] were 70% and 51.1%, respectively.
The like results for `Cc1cc2c(c(C)c1Cl)C(=O)CC(c1ccc(Cl)cc1)O2` (stereo not drawn) were, in that order, 70% and 37.8%.
On the same counts, the results for `COc1cc(C)c(Cl)c(C)c1C(=O)/C=C/c1ccc(N(C)C)cc1` are 18.8% and 22.2%.
The like results for `COc1cc(C)c(Cl)c(C)c1C(=O)/C=C/c1ccc(Cl)cc1` were, in that order, 12.5% and 22.2%.
In the case of `COc1cc(C2CC(=O)c3c(cc(C)c(Cl)c3C)O2)cc(OC)c1OC` (stereo not drawn), the inhibition in vivo at 20 mg/kg in the series with Rattus norvegicus [2] worked out at 44.4%; in the series on Rattus norvegicus [3], 48.5%.
